Data taken from patent US8658800B2 (priority 2010, dated 2014).

How the values were obtained:
[1] = system: caterpillars of the armyworm (Spodoptera frugiperda); test: Spodoptera frugiperda test (SPODFR spray treatment); assay type: in vivo; settings: foliar, 168 h, 100 g/ha, sprayed maize leaf discs, after 7 days, read-out: activity (kill of caterpillars)
Method: Spodoptera frugiperda Test (SPODFR Spray Treatment)
Solvents: 78.0 parts by weight of acetone
(§1) • 1.5 parts by weight of dimethylformamide Emulsifier: 0.5 part by weight of alkylaryl polyglycol ether
(§2) To produce a suitable preparation of active compound, 1 part by weight of active compound is mixed with the stated amount of solvents and emulsifier, and the concentrate is diluted with emulsifier-containing water to the desired concentration.
Discs of maize leaves (Zea mays) are sprayed with an active compound preparation of the desired concentration and, after drying, populated with caterpillars of the armyworm (Spodoptera frugiperda).
After 7 days, the effect in % is determined. 100% means that all caterpillars have been killed; 0% means that none of the caterpillars have been killed.

[2] = system: larvae of the mustard beetle (Phaedon cochleariae); test: Phaedon test (PHAECO spray treatment); assay type: in vivo; settings: 168 h, 100 g/ha, sprayed Chinese cabbage discs, after 7 days, read-out: activity (kill of beetle larvae)
Method: Phaedon Test ([…] Spray Treatment) Solvents: 78.0 parts by weight of acetone • • 1.5 parts by weight of dimethylformamide Emulsifier: 0.5 part by weight of alkylaryl polyglycol ether To produce a suitable preparation of active compound, 1 part by weight of active compound is mixed with the stated amount of solvents and emulsifier, and the concentrate is diluted with emulsifier-containing water to the desired concentration. Discs of Chinese cabbage (Brassica pekinensis) are sprayed with an active compound preparation of the desired concentration and, after drying, populated with larvae of the mustard beetle (Phaedon cochleariae).

Lucilia cuprina larvae = test: Lucilia cuprina test (LUCICU); assay type: in vivo; settings: 100 ppm, treated horse meat, after 2 days
Method: Lucilia cuprina Test (LUCICU)
(§3) Solvent: dimethyl sulphoxide
(§4) To produce a suitable preparation of active compound, 10 mg of active compound are mixed with 0.5 ml of dimethyl sulphoxide and the concentrate is diluted with water to the desired concentration.
Vessels containing horse meat treated with the active compound of the desired concentration are populated with about 20 Lucilia cuprina larvae.
After 2 days, the kill in % is determined 100% means that all of the larvae have been killed; 0% means that none of the larvae have been killed.

[3] = logP by HPLC on reversed-phase columns (C 18), EEC Directive 79/831 Annex V.A8; assay type: physicochemical; settings: reversed-phase C18 HPLC column; HPLC, reversed-phase C 18, acidic range pH 2.7, 0.1% aqueous formic acid/acetonitrile; read-out: log P
Method: The logP values reported in the table above and in the Preparation Examples were determined in accordance with EEC Directive 79/831 Annex V.A8 by HPLC (High Performance Liquid Chromatography) on reversed-phase columns (C 18), with the following methods:
The LC-MS determination in the acidic range is carried out at pH 2.7 using the mobile phases 0.1% aqueous formic acid and acetonitrile (contains 0.1% formic acid), linear gradient from 10% acetonitrile to 95% acetonitrile
Calibration was carried out using unbranched alkan-2-ones (having from 3 to 16 carbon atoms) with known logP values (the logP values were determined by the retention times using linear interpolation between two successive alkanones).

adult Musca domestica = test: Musca domestica test (MUSCDO); assay type: in vivo; settings: treated sponge, after 2 days
Method: Musca domestica Test (MUSCDO)
as §3, §4
Vessels containing a sponge treated with the active compound preparation of the desired concentration are populated with adult Musca domestica.
After 2 days, the kill in % is determined 100% means that all of the flies have been killed; 0% means that none of the flies have been killed.

Boophilus microplus = Boophilus microplus test (BOOPMI injection); assay type: in vivo; settings: 10 μg/animal, injection into the abdomen, after 7 days
Method: Boophilus microplus Test (BOOPMI Injection)
as §3
To produce a suitable preparation of active compound, 10 mg of active compound are mixed with 0.5 ml of solvent and the concentrate is diluted with solvent to the desired concentration.
The active compound solution is injected into the abdomen (Boophilus microplus), and the animals are transferred into dishes and stored in a climate-controlled room. The activity is assessed by […] of fertile eggs.
After 7 days, the effect in % is determined 100% means that none of the ticks has laid any fertile eggs.

[4] = system: green peach aphid (Myzus persicae); test: Myzus test (MYZUPE spray treatment); assay type: in vivo; settings: 144 h, sprayed Chinese cabbage discs, after 6 days, read-out: activity (kill of aphids)
Method: Myzus Test (MYZUPE Spray Treatment)
Solvents: 78 parts by weight of acetone
as §1, §2
Discs of Chinese cabbage (Brassica pekinensis) infested by all stages of the green peach aphid (Myzus persicae) are sprayed with an active compound preparation of the desired concentration.
After 6 days, the effect in % is determined. 100% means that all of the aphids have been killed; 0% means that none of the aphids have been killed.

| Structure (SMILES) | pest or weed control at 100 g/ha [1] [%] | pest or weed control at 100 g/ha [2] [%] | efficacy (kill) (Lucilia cuprina larvae) [%] | chromatographic logP [3] | efficacy (kill) (adult Musca domestica; 100 ppm) [%] | activity (100% = none of the ticks has laid any fertile eggs) (Boophilus microplus) [%] | pest or weed control at 100 g/ha [4] [%] | efficacy (kill) (adult Musca domestica; 20 ppm) [%] |
| --- | --- | --- | --- | --- | --- | --- | --- | --- |
| Cc1cc(Cl)cc(C(=S)NC(C)(C)C)c1NC(=O)c1cc(Cn2nnc(C(F)(F)F)n2)nn1-c1ncccc1Cl [Compound 6] | 100 | 100 | 100 | 4.33 | 90 | 100 | – | – |
| CNC(=S)c1cc(Cl)cc(C)c1NC(=O)c1cc(Cn2nnc(C(F)(F)F)n2)nn1-c1ncccc1Cl [Compound 7] | 100 | 100 | 100 | 3.42 | – | 100 | 100 | 90 |
